Tests used:
[1] = target: Full length human DNAPK protein (Homo sapiens, UniProt P78527); assay: DNA-PK enzymatic assay (TR-FRET); format: biochemical; details: 10 μM ATP, 1.6 μM peptide substrate
Rat hepatocyte = assay: Metabolic stability assay (rat hepatocyte Clint); format: in vitro ADME; details: 1 μM compound, cryopreserved hepatocytes 1 million cells per mL
Outline: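 Compound at 1 μM incubated with cryopreserved rat hepatocytes, 1 million cells/mL, sampled 0–120 min with acetonitrile quench and LC-MS/MS quantitation. CLint (μL/min/E6) derived from elimination rate constant and half-life of parent disappearance, scaled by cell concentration.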

MDR1, BCRP = assay: MDCKII-MDR1-BCRP efflux assay; format: in vitro ADME; details: dog, pH 7.4, 5 μM compound, HBSS pH 7.4, read-out: MDCK-Mdr1-BCRP efflux ratio
Outline: (§1)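 Bidirectional (A-B, B-A) transport of 5 μM compound across MDCKII-MDR1-BCRP monolayers in HBSS, 25 mM HEPES pH 7.4, ~37° C. for 120 min, triplicate; donor and receiver concentrations measured, monolayer integrity checked with Lucifer yellow. Papp and efflux ratio calculated.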

[2] = Brain-blood-barrier penetration assay (short oral absorption model, Kp,uu); format: in vivo; details: male, Han Wistar, rat, brain and plasma, po, 10 mg/kg, male Han Wistar rats, oral 10 mg/kg in 1% methylcellulose; AUC(brain)/AUC(plasma)×(fu,brain/fu.plasma)
Experimental: It is believed that Kp,uu, the relationship between concentrations of unbound drug in brain and in plasma, is the key to prediction of CNS action and should be the main parameter measured and optimized for in drug discovery (Di L et al., Journal of Medicinal Chemistry [2013], 56: 2-12).
In vitro plasma and brain binding assay was carried out by using equilibrium dialysis method with semi-permeable membrane. Plasma and diluted brain homogenate (1:4 with DPBS pH7.4) were spiked with 5 μM test compound (in triplicate) and dialyzed against equal volume of 150 μL 100 mM PBS buffer (pH7.4) at 37° C. for 18 hours in a slowly rotated plate. At the end of incubation, a 50 μL aliquot from the receiver side and a 5 μL from the donor chamber were taken. The 5 μL sample was further diluted with 45 μL of blank plasma or brain homogenate. Paired samples were matrix-matched with either buffer or blank plasma/brain homogenate and mixed for 2 min, and then precipitated with 150 μL cold acetonitrile with 100 ng/mL tolbutamide as internal standard. After centrifuging at 4000 rpm for 20 min, supernatant was diluted with 0.1% formic acid aqueous solution and analyzed for LC/MS/MS (API 4000, Applied Biosystems, Foster City). Unbound fraction (fu) of test compound in the brain homogenate and diluted plasma were calculated by the ratio of the buffer side response to the brain homogenate/plasma side response, and unbound fraction (fu,pl and fu,br) of test compound in non-diluted plasma and tissue were calculated from measured fu in homogenate and plasma with the following equation: fu,bl (fu,br)=(1/D)/[(1/fu−1)+1/D)]. D is dilution factor.
A Short oral absorption (SOA) model is an in-vivo screening model to identify brain penetration of a compound. Six male Han Wistar rats purchased from Beijing Vital River were orally dosed with the compound at 10 mg/kg in 1% methylcellulose At 0.5, 1, 2, 4, 7 and 16 hour post-dose, cerebral spinal fluid (CSF) was collected from cisterna magna. Plasma samples will be processed for plasma by centrifugation at approximately 4° C., 3,000 g within half an hour of collection. Plasma samples will be removed to a labeled tube and stored at −80 degree until analysis. Brain tissue was harvested and homogenized in 3× volume of 100 mM phosphate buffered saline (pH7.4). All samples were stored at ˜−70° C. prior to LC/MS/MS analysis.
Standards were prepared by spiking blank plasma, brain homogenate and artificial CSF covering 0.5 to 500 ng/mL. Homogenized brain tissue along with plasma samples were precipitated by adding 3-fold volume of cold acetonitrile containing internal standard (40 ng/mL Dexamethasone and 40 ng/mL Diclofenac), and 10 μL of CSF samples were precipitated with 100 μL of cold acetonitrile containing internal standard. After 2 min vortex and 5 min centrifugation at 14,000 rpm, supernatant was analyzed by LC/MS/MS (API 4000, Applied Biosystems, Foster City). Two sets of standard curves were run at the beginning and end of each batch from plasma sample analysis. For brain and CSF samples, one standard curve was analyzed along with test samples.
Total brain levels, expressed as brain/plasma ratio (Kp) were measured by AUCbrain/AUCplasma in rodents after oral administration. Free fraction of test compound in biological matrix was determined by in vitro plasma and brain binding assay. Kp,uu was calculated by the following equation: Kp,uu=AUC (brain)/AUC (plasma)×(fu,brain/fu.plasma).

[3] = Metabolic stability assay (human microsomal Clint); format: in vitro ADME; details: 1 mg/mL microsomes, 1 mM NADPH, 37° C.; for microsomal CLint at 1 μM: human, pooled human liver microsomes, pH 7.4, 1 μM compound; for Human liver microsomal CLint: 1 μM compound
Outline: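 Compound (1 μM) incubated at 37 °C with pooled human liver microsomes (1 mg/mL) and 1 mM NADPH in 100 mM phosphate, pH 7.4. Samples quenched in acetonitrile at 0–30 min and analysed by LC-MS/MS for parent loss. CLint reported in μl/min/mg.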

[4] = system: MDCKII-MDR1-BCRP cell monolayers; assay: MDCKII-MDR1-BCRP efflux assay; format: in vitro ADME; details: 5 μM compound, 120 min, HBSS pH 7.4
Outline: as §1

Structure (SMILES)	IC50 [1]	Rat hepatocyte CLint (μl/min/10^−6 cells) (Rat hepatocyte)	efflux ratio at 120 min, 5 μM (MDR1, BCRP)	Kp uu [2]	microsomal CLint at 1 μM [3]	MDCK-Mdr1-BCRP efflux ratio [4]	Human liver microsomal CLint [3]
Cc1cc2nccn2cc1Nc1ncc2c(n1)c(C1CCOCC1)nn2C [Example 2, 1-methyl-N-(7-methylimidazo[1,2-a]pyridin-6-yl)-3-(tetrahydro-2H-pyran-4-yl)-1H-pyrazolo[4,3-d]pyrimidin-5-amine]	1.4 nM	3.0 μl/min/10^−6 cells	3.3	0.14	12.7 µL/min/mg	–	–
Cc1cc2ncnn2cc1Nc1ncc2c(C)nn([C@@H]3C[C@H]4CC[C@@H](C3)O4)c2n1 [Example 107, 1-((1R,3s,5S)-8-oxabicyclo[3.2.1]octan-3-yl)-3-methyl-N-(7-methyl-[1,2,4]triazolo[1,5-a]pyridin-6-yl)-1H-pyrazolo[3,4-d]pyrimidin-6-amine]	1.3 nM	4.5 μl/min/10^−6 cells	2.7	0.3	13.9 µL/min/mg	–	–
Cc1cc2ncnn2cc1Nc1ncc2c(C)nn(C3CCC(F)(F)CC3)c2n1 [Example 21, 1-(4,4-difluorocyclohexyl)-3-methyl-N-(7-methyl-[1,2,4]triazolo[1,5-a]pyridin-6-yl)-1H-pyrazolo[3,4-d]pyrimidin-6-amine]	1.4 nM	10.0 μl/min/10^−6 cells	1.3	0.08	102 µL/min/mg	–	–
Cc1cc2ncnn2cc1Nc1ncc2c(C)nn(C3CCOCC3C)c2n1 (single isomer, unassigned) [Example 114, 3-methyl-N-(7-methyl-[1,2,4]triazolo[1,5-a]pyridin-6-yl)-1-(3-methyltetrahydro-2H-pyran-4-yl)-1H-pyrazolo[3,4-d]pyrimidin-6-amine]	1.7 nM	8.5 μl/min/10^−6 cells	–	–	–	2	50.4 µL/min/mg
Cc1cc2ncnn2cc1Nc1ncc2c(C)nn(CC3CCCO3)c2n1 (single isomer, unassigned) [Example 51, 3-methyl-N-(7-methyl-[1,2,4]triazolo[1,5-a]pyridin-6-yl)-1-((tetrahydrofuran-2-yl)methyl)-1H-pyrazolo[3,4-d]pyrimidin-6-amine]	12 nM	<1 μl/min/10^−6 cells	–	–	–	1.9	20.9 µL/min/mg
CO[C@H]1CC[C@H](n2nc(C)c3cnc(Nc4cn5ncnc5cc4C)nc32)CC1 [Example 24, 1-((1r,4r)-4-methoxycyclohexyl)-3-methyl-N-(7-methyl-[1,2,4]triazolo[1,5-a]pyridin-6-yl)-1H-pyrazolo[3,4-d]pyrimidin-6-amine]	0.4 nM	5.5 μl/min/10^−6 cells	1.4	0.1	72.3 µL/min/mg	–	–
Cc1cc2ncnn2cc1Nc1ncc2c(n1)c(C1CCOCC1)nn2C [Example 1, 1-methyl-N-(7-methyl-[1,2,4]triazolo[1,5-a]pyridin-6-yl)-3-(tetrahydro-2H-pyran-4-yl)-1H-pyrazolo[4,3-d]pyrimidin-5-amine]	0.8 nM	5.4 μl/min/10^−6 cells	5.9	0.17	19.8 µL/min/mg	–	–
CO[C@H]1CC[C@H](c2nn(C)c3cnc(Nc4cn5ncnc5cc4C)nc32)CC1 [Example 7, 3-((1r,4r)-4-methoxycyclohexyl)-1-methyl-N-(7-methyl-[1,2,4]triazolo[1,5-a]pyridin-6-yl)-1H-pyrazolo[4,3-d]pyrimidin-5-amine]	0.8 nM	7.5 μl/min/10^−6 cells	2.3	0.1	75.1 µL/min/mg	–	–
Cc1cc2ncnn2cc1Nc1ncc2c(C)nn(C3CCOC3)c2n1 (single isomer, unassigned) [Example 49, 3-methyl-N-(7-methyl-[1,2,4]triazolo[1,5-a]pyridin-6-yl)-1-(tetrahydrofuran-3-yl)-1H-pyrazolo[3,4-d]pyrimidin-6-amine]	1.7 nM	<1 μl/min/10^−6 cells	–	–	–	3.4	8.7 µL/min/mg
Cc1cc2ncnn2cc1Nc1ncc2c(C)nn(C3CCOCC3C)c2n1 (single isomer, unassigned) [Example 115, 3-methyl-N-(7-methyl-[1,2,4]triazolo[1,5-a]pyridin-6-yl)-1-(3-methyltetrahydro-2H-pyran-4-yl)-1H-pyrazolo[3,4-d]pyrimidin-6-amine]	1.9 nM	7.7 μl/min/10^−6 cells	–	–	–	2	53.5 µL/min/mg
Cc1cc2ncnn2cc1Nc1ncc2c(C)nn(CC3CCOC3)c2n1 (single isomer, unassigned) [Example 53, 3-methyl-N-(7-methyl-[1,2,4]triazolo[1,5-a]pyridin-6-yl)-1-((tetrahydrofuran-3-yl)methyl)-1H-pyrazolo[3,4-d]pyrimidin-6-amine]	7.2 nM	5.0 μl/min/10^−6 cells	–	–	–	2.4	15.2 µL/min/mg
Cc1cc2ncnn2cc1Nc1ncc2c(C)nn(C3CC(C)OC(C)C3)c2n1 (single isomer, unassigned) [Example 86-1, 1-(2,6-dimethyltetrahydro-2H-pyran-4-yl)-3-methyl-N-(7-methyl-[1,2,4]triazolo[1,5-a]pyridin-6-yl)-1H-pyrazolo[3,4-d]pyrimidin-6-amine]	3 nM	42.7 μl/min/10^−6 cells	–	–	–	0.9	>300 µL/min/mg
Cc1cc2ncnn2cc1Nc1ncc2c(C)nn(C3CCOC(C)(C)C3)c2n1 (single isomer, unassigned) [Example 117, 1-(2,2-dimethyltetrahydro-2H-pyran-4-yl)-3-methyl-N-(7-methyl-[1,2,4]triazolo[1,5-a]pyridin-6-yl)-1H-pyrazolo[3,4-d]pyrimidin-6-amine]	1.8 nM	9.1 μl/min/10^−6 cells	–	–	–	1.8	50.4 µL/min/mg
Cc1cc2ncnn2cc1Nc1ncc2c(C)nn(C3CCOCC3C)c2n1 (single isomer, unassigned) [Example 113, 3-methyl-N-(7-methyl-[1,2,4]triazolo[1,5-a]pyridin-6-yl)-1-(3-methyltetrahydro-2H-pyran-4-yl)-1H-pyrazolo[3,4-d]pyrimidin-6-amine]	3.2 nM	8.2 μl/min/10^−6 cells	–	–	–	4	60.5 µL/min/mg

Reference: patent US12630565B2, “DNA-dependent protein kinase inhibitor” (DIZAL (JIANGSU) PHARMACEUTICAL CO., LTD., priority 2019, dated 2026)
